From patent US10590121B2, “Kinase inhibitors and methods for making and using” (Rigel Pharmaceuticals, Inc., priority 2017, dated 2020)

Key:
[1] = test system: LPS induced IL-23 (p19/p40) in DC cells differentiated from human PBMC; assay: IL23-p19 ELISA, dendritic cells (DC differentiated from human PBMC), IFNγ primed, LPS stimulated; format: cell-based; conditions: human PBMC-derived dendritic cells, 1 μg/ml LPS, 18 hours, 10 pt
Method in brief: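 Human PBMC-derived DCs (GM-CSF 100 ng/ml + IL-4 20 ng/ml, 7 days) were primed 24 h with IFNγ 50 ng/ml, pre-incubated 1 h with compound, then stimulated 18 h with LPS 1 μg/ml at 37° C. Supernatant IL-23 was measured by sandwich chemiluminescent ELISA (anti-p19 capture, anti-p40 detection); cytotoxicity was checked by CellTiter-Glo.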

[2] = test system: LPS induced IL23p19 in THP-1 cells; assay: LPS Induced IL23p19 in THP-1 Cells (with IFNγ Primed) Assay; format: cell-based; conditions: Homo sapiens; THP-1 cells primed with IFNγ 50 ng/mL, 1 μg/mL LPS, 18 hours, 10 pt; read-out: IL23-p19 ELISA, THP1-IFNy, LPS, 10 pt EC50
Method in brief: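 THP-1 cells were primed with IFNγ (50 ng/mL, ~18 h), pre-incubated 1 h with compound, then stimulated 18 h with 1 μg/mL LPS at 37° C. Supernatant IL-23p19 was measured by chemiluminescent sandwich ELISA, and EC50 was fitted. Toxicity was checked on the remaining cells with Cell Titer Glo.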

| SMILES | EC50 [1] [nM] | EC50 [2] [nM] |
| --- | --- | --- |
| O=C(Nc1ccc(CN2CCOCC2)cc1N1CCCCC1)c1csc(-c2cn[nH]c2)n1 [I-50, N-(4-(morpholinomethyl)-2-(piperidin-1-yl)phenyl)-2-(1H-pyrazol-4-yl)thiazole-4-carboxamide] | 71.7 | 130 |
| COc1ccc(N2CCOCC2)cc1NC(=O)c1csc(-c2cn[nH]c2)n1 [I-41, N-(2-methoxy-5-morpholinophenyl)-2-(1H-pyrazol-4-yl)thiazole-4-carboxamide] | 9220 | 3920 |
| O=C(Nc1cc(C(F)(F)CN2CCOCC2)ccc1N1CCCCC1)c1ccc(-c2cn[nH]c2)o1 [I-34, N-(5-(1,1-difluoro-2-morpholinoethyl)-2-(piperidin-1-yl)phenyl)-5-(1H-pyrazol-4-yl)furan-2-carboxamide] | 6620 | 1540 |
| O=C(Nc1ccc(N2CCOCC2)cc1N1CCCCC1)c1ccc(-c2cn[nH]c2)o1 [I-37, N-(4-morpholino-2-(piperidin-1-yl)phenyl)-5-(1H-pyrazol-4-yl)furan-2-carboxamide] | 153 | 262 |
| O=C(Nc1ccc(N2CCOCC2)cc1N1CCC(F)CC1)c1ccc(-c2cn[nH]c2)o1 [I-5, N-(2-(4-fluoropiperidin-1-yl)-4-morpholinophenyl)-5-(1H-pyrazol-4-yl)furan-2-carboxamide] | 182 | 145 |
| CC1(O)CCN(c2cc(N3CCOCC3)ccc2NC(=O)c2cccc(-c3cn[nH]c3)n2)CC1 [I-16, N-(2-(4-hydroxy-4-methylpiperidin-1-yl)-4-morpholinophenyl)-6-(1H-pyrazol-4-yl)picolinamide] | 1720 | 740 |
| O=C(Nc1cc(N2CCOCC2)ccc1N1CCCCC1)c1csc(-c2cn[nH]c2)n1 [I-26, N-(5-morpholino-2-(piperidin-1-yl)phenyl)-2-(1H-pyrazol-4-yl)thiazole-4-carboxamide] | 847 | 554 |
| CN(CCN1CCOCC1)c1ccc(NC(=O)c2cccc(-c3cn[nH]c3)n2)c(N2CCCCC2)c1 [I-69, N-(4-(methyl(2-morpholinoethyl)amino)-2-(piperidin-1-yl)phenyl)-6-(1H-pyrazol-4-yl)picolinamide] | 2820 | 2630 |
| O=C(Nc1ccc(NCCN2CCOCC2)cc1N1CCCCC1)c1cccc(-c2cn[nH]c2)n1 [I-72, N-(4-((2-morpholinoethyl)amino)-2-(piperidin-1-yl)phenyl)-6-(1H-pyrazol-4-yl)picolinamide] | 1840 | 870 |
| O=C(Nc1cc(CC(=O)N2CCOCC2)ccc1N1CCCCC1)c1ccc(-c2cn[nH]c2)o1 [I-64, N-(5-(2-morpholino-2-oxoethyl)-2-(piperidin-1-yl)phenyl)-5-(1H-pyrazol-4-yl)furan-2-carboxamide] | 1320 | 3680 |
| CN1CCN(c2ccc(NC(=O)c3csc(-c4cn[nH]c4)n3)c(N3CCCCC3)c2)CC1 [I-3, N-(4-(4-methylpiperazin-1-yl)-2-(piperidin-1-yl)phenyl)-2-(1H-pyrazol-4-yl)thiazole-4-carboxamide] | 71.2 | 25.9 |
| CN1CCN(c2ccc(NC(=O)c3csc(-c4cn[nH]c4)n3)c(N3CCC(F)CC3)c2)CC1 [I-9, N-(2-(4-fluoropiperidin-1-yl)-4-(4-methylpiperazin-1-yl)phenyl)-2-(1H-pyrazol-4-yl)thiazole-4-carboxamide] | 67.2 | 36 |
| O=C(Nc1ccc(N2CCOCC2)cc1N1CCOCC1)c1ccc(-c2cn[nH]c2)o1 [I-14, N-(2,4-dimorpholinophenyl)-5-(1H-pyrazol-4-yl)furan-2-carboxamide] | 1920 | 178 |
| O=C(Nc1ccc(N2CCOCC2)cc1N1CCC(F)(F)CC1)c1csc(-c2cn[nH]c2)n1 [I-21, N-(2-(4,4-difluoropiperidin-1-yl)-4-morpholinophenyl)-2-(1H-pyrazol-4-yl)thiazole-4-carboxamide] | 1000 | 465 |
